The term IC50 denotes the point on the concentration scale where inhibition reaches its midpoint.

The test system of one test is mice. As to the kind of experiment: Dark Avoidance Assay (reversal of scopolamine induced memory deficit). Particulars: retest after 24 hours. The format is in vivo.
Another test addresses acetylcholinesterase (Homo sapiens, UniProt P22303). As to the kind of experiment: biochemical.

Counter-ions that a name gives are not always drawn. Like-named read-outs stand apart in the source and are kept apart here.

Sequence of acetylcholinesterase (P22303 32-614): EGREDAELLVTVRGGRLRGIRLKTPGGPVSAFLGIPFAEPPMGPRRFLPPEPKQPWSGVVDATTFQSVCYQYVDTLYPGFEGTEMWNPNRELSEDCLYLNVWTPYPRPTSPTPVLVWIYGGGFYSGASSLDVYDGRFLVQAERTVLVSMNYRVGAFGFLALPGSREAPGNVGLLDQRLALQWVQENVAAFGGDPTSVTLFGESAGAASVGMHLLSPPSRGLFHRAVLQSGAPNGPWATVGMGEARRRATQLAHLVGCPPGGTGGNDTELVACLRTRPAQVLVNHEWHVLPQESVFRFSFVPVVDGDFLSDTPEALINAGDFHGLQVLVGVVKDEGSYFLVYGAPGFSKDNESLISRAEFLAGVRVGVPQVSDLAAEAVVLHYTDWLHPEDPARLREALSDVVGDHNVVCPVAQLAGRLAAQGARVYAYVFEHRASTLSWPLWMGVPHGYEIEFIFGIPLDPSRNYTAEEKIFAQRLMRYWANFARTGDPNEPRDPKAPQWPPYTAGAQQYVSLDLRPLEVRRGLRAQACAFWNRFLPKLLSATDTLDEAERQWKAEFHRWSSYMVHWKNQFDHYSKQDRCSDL
Description for mice: In this assay mice are tested for their ability to remember an unpleasant stimulus for a period of 24 hours. A mouse is placed in a chamber that contains a dark compartment; a srong incandescent light drives it to the dark compartment, where an electric shock is administered through metal plates on the floor. The animal is removed from the testing apparatus and tested again, 24 hours later, for the ability to remember the electric shock.
If scopolamine, an anticholinergic that is known to cause memory impairment, is administered before an animal's initial exposure to the test chamber, the animal re-enters the dark compartment shortly after being placed in the test chamber 24 hours later.

`CON(C)c1c2c(nc3ccccc13)CCCC2` [N-Methoxy-N-methyl-1,2,3,4-tetrahydro-9-acridinamnine hydrochloride]: the “% Animals with Scopolamine Induced memory deficit reversed” value (“% Animals” below) with mice (dose 1.0 mg/kg s.c.) turned out to be 27%. The IC50 at acetylcholinesterase (read-out: Cholinesterase Inhibition IC50) worked out at 27 µM. Consider `CONc1c2c(nc3ccccc13)CCCC2.Cl` [N-Methoxy-1,2,3,4-tetrahydro-9-acridinamine hydrochloride], for which the “% Animals” value with mice (dose 1.0 mg/kg s.c.) is listed as 27%. This compound also returned an IC50 on acetylcholinesterase of 0.51 µM. Consider `CCCONc1c2c(nc3ccccc13)CCCC2` [N-Propyloxy-1,2,3,4-tetrahydro-9-acridinamine, oxalate, hemihydrate], for which, at acetylcholinesterase (read-out: Cholinesterase Inhibition IC50, photometric method of Ellman et al.), the IC50 stood at 0.83 µM.

`c1ccc(CONc2c3c(nc4ccccc24)CCCC3)cc1` [N-Benzyloxy-1,2,3,4-tetrahydro-9-acridinamine]: on acetylcholinesterase, the IC50 is 6.1 µM. On to `Nc1c2c(nc3ccccc13)CCCC2` [9-Amino-1,2,3,4-tetrahydroacridine, reference compound], for which the “% Animals” value with mice (dose 0.31 mg/kg s.c.) turned out to be 20%.

For `Fc1ccccc1CONc1c2c(nc3ccccc13)CCCC2` [N-(2-Fluorobenzyloxy)-1,2,3,4-tetrahydro-9-acridinamine], the IC50 at acetylcholinesterase came to 5.2 µM.

These data come from patent publication US6248750A, “9-hydroxyamino tetrahydroacridine and related compounds” (Hoechst Roussel Pharmaceuticals, priority 2000, dated 2001).
